Tests used:
[1] = tested on: prostaglandin E2; assay: Inhibition of prostaglandin E2 production in LPS-stimulated Raw 264.7 cells (enzyme immunometric assay); type: cell-based, murine; conditions: for PGE2: 1 μg/ml LPS, 16 hours
Protocol: To investigate whether kaurane diterpene compounds obtained in Example 1 can inhibit the production of prostaglandin, which induces inflammatory reaction, the present inventors measured the amount of prostaglandin E2 accumulated in the culture medium of LPS-stimulated murine macrophage cells, which were treated with four kaurane diterpene compounds, kamebanin, kamebacetal A, kamebakaurin, or exisanin A.
In detail, Raw 264.7 cells in DMEM medium were seeded to a 96-well plate at a cell density of 1×10^5 cells/well and were incubated for 18 hours. Cyclooxygenase-1, the constitutive rate-determining enzyme of the prostaglandin synthesis was inactivated by incubating for 3 hrs with 500 μM of aspirin and each well was washed two times with PBS (phosphate-buffered saline). To each well were added 1 μg/ml of LPS and 3 μg/ml, 0.3 μg/ml, and 0.03 μg/ml concentrations of kaurane diterpene compounds of the present invention and was incubated for 16 hours. After collecting supernatant by centrifugation, the amount of prostaglandin in the culture medium was quantified by enzyme immunometric assay.

[2] = tested on: adjuvant arthritis model; assay: Adjuvant arthritis model, paw volume; type: in vivo, Sprague-Dawley rat; conditions: for Inhibition rate (%) of arthritis: day 16-22, paw volume on 23rd day
Protocol: Finding the inhibitory effect of kaurane diterpene compounds on the production of NO, prostaglandin, and TNF, and on the activation of NF-κB in the murine macrophage cells stimulated by LPS, the present inventors investigated the pharmacological efficacy of kaurane diterpene compounds with a adjuvant arthritis model according to the method of Futaki et al. (General Pharmacology, 1993, 24, 105-110). To prepare animal model of the arthritis, 0.05 ml of 0.1% Mycobacterium butyricum suspended in Freud adjuvant (Sigma, USA) was injected intradermally to the left hind paw of the male Sprague-Dawley rat of 180 g weight. On the fifteenth day after injection, the volume of the right paw of the rats was measured using plethysmometer (Ugo-Basile, Italy), and only the rats having arthritis on the right leg were selected. Thereafter, the selected rats were divided into four groups, six rats per each group. Four kinds of kaurane diterpene compounds of the present invention were administered orally to each groups everyday from the sixteenth day to twenty-second day with doses of 3 mg/kg/day, 10 mg/kg/day, and 20 mg/kg/day in the form of the suspended solution with 0.1% methylcellulose. The inhibition rate of arthritis was calculated by comparing the volume of the paw with that of the control on the 23rd day.

[3] = tested on: Bf1-1/A1 mRNA; assay: TNF-α-induced Bf1-1/A1 mRNA expression, Northern blot, MCF-7 and HT-1080 cells; type: cell-based; conditions: 1, 5, 10 μg/ml, 20 ng/ml TNF-α 3 hours
Protocol: MCF-7 cells (ATCC HTB 22, breast cancer cell line) and HT-1080 cells (ATCC CCL 121, fibroblastoma) were pretreated for 30 minutes with 1 μg/ml, 5 μg/ml, and 10 μg/ml concentrations of four kinds of kaurane diterpene compounds. Thereafter, 20 ng/ml concentrations of TNF-α were treated for three hours to induce the expression of Bf1-1/A1 mRNA. After isolating total RNA from the control and compound-treated cells, the expression of Bf1-1/A1 mRNA was measured by Northern blot analysis. To accomplish this, 20 μg of the total RNA was electrophoresed in the 1% agarose gel containing 2.2M concentrations of formaldehyde. After that, RNA was transferred to nylon membrane and fixed using ultraviolet. The nylon membrane was hybridized with ^32P-labeled probe, which was represented by SEQ. ID NO. 2 and specific to the cDNA of Bf1-1/A1 gene. After washing unbound probe with phosphate buffered saline (PBS) containing sodium dodecyl sulfate (SDS), the membrane was exposed to x-ray film.

[4] = tested on: cIAP-1; assay: TNF-α-induced cIAP-1 protein expression, Western blot, MCF-7 and HT-1080 cells; type: cell-based; conditions: 1, 5, 10 μg/ml, 20 ng/ml TNF-α 3 hours
Protocol: (§1) MCF-7 cells and HT-1080 cells were pretreated for 30 minutes with 1 μg/ml, 5 μg/ml, and 10 μg/ml concentrations of four kinds of kaurane diterpene compounds, respectively. After that, 20 ng/ml concentrations of TNF-α were treated for three hours to induce the expression of cIAP-1 and cIAP-2 proteins. Protein extract was prepared from cultured cells using buffer solution for protein extraction consisting of 50 mM Tris-HCL (pH 7.5), 1% Nonidet P40, 150 mM NaCl, 1 mM EDTA, 1 mM phenylmethyl sulfonyl fluoride, […]. 50 μg of protein extract of the control and compound-treated groups was applied to the SDS-polyacrylamide gel electrophoresis. After transferring the proteins into the polyvinylidene difluoride membrane, the membrane was blocked with 5% skim milk for three hours, and were reacted with antibodies against cIAP-1, cIAP-2, Bcl-2, and Bax proteins (Santa Cruz Biochemicals). The membrane was washed with PBS and was reacted with secondary antibody conjugated with horseradish peroxidase. After washing again with PBS, the protein was detected by ECL system (Amersham Pharmacia Biotec).

[5] = tested on: cIAP-2; assay: TNF-α-induced cIAP-2 protein expression, Western blot, MCF-7 and HT-1080 cells; type: cell-based; conditions: 1, 5, 10 μg/ml, 20 ng/ml TNF-α 3 hours
Protocol: as §1

[6] = tested on: Bcl-2; assay: Bcl-2 expression, Western blot, MCF-7 and HT-1080 cells; type: cell-based; conditions: 1, 5, 10 μg/ml, 20 ng/ml TNF-α 3 hours
Protocol: as §1

[7] = tested on: Bax; assay: Bax expression, Western blot, MCF-7 and HT-1080 cells; type: cell-based; conditions: 1, 5, 10 μg/ml, 20 ng/ml TNF-α 3 hours
Protocol: as §1

[8] = tested on: iNOS mRNA; assay: iNOS mRNA expression, RT-PCR, LPS-stimulated Raw 264.7 cells; type: cell-based, murine; conditions: 1 μg/ml, LPS 1 μg/ml, 6 hours
Protocol: (§2) Raw 264.7 murine macrophage cells were treated simultaneously with 1 μg/ml concentrations of LPS and 0.1 μg/ml, 0.3 μg/ml, 1 μg/ml, and 3 μg/ml concentrations of kamebakaurin and were incubated for 6 hours at 37° C. in a 5% CO2 incubator. After isolation of total RNA, reverse transcriptase-polymerase chain reaction (RT-PCR) was performed using said RNA as a template and primer pairs represented by SEQ. ID NO. 3 and 4 for iNOS gene and primer pairs represented by SEQ. ID NO. 5 and 6 for COX-2.

[9] = tested on: COX-2 mRNA; assay: COX-2 mRNA expression, RT-PCR, LPS-stimulated Raw 264.7 cells; type: cell-based, murine
Protocol: as §2

[10] = tested on: iNOS protein; assay: iNOS protein expression, Western blot, LPS-stimulated Raw 264.7 cells; type: cell-based, murine; conditions: LPS 1 μg/ml, 18 hours
Protocol: Raw 264.7 murine macrophage cells were treated simultaneously with 1 μg/ml concentrations of LPS and 0.1 μg/ml, 0.3 μg/ml, 1 μg/ml, and 3 μg/ml concentrations of kamebakaurin and were incubated for 18 hours at 37° C. in a 5% CO2 incubator. After preparing total cell lysates from cultured cells using buffer solution for protein extraction of the Example <7-2>, the expression pattern of proteins was assessed by Western blot analysis.

For C=C1C(=O)[C@@]23[C@H](O)C[C@@H]4C(C)(C)CC[C@H](O)[C@@]4(CO)[C@@H]2CC[C@@H]1[C@H]3O [Kamebakaurin, kamebakaurin], the “PGE2” value ([1]; 0.03 μg/ml compound) was 10.7 ± 1.2 ng/mL, the “PGE2” value ([1]; 0.3 μg/ml compound) was 9.2 ± 0.2 ng/mL and the “Inhibition rate (%) of prostaglandin E2 production” value ([1]; 3 μg/ml compound) was 95.1%. The “PGE2” value ([1]; 3 μg/ml compound) was 1.8 ± 0.4 ng/mL, the inhibition at 0.03 µg/mL ([1]; Mus musculus, RAW264.7, 0.03 μg/ml compound, read-out: Inhibition rate (%) of prostaglandin E2 production) was -7.1% and the inhibition at 0.3 µg/mL ([1]; Mus musculus, RAW264.7, 0.3 μg/ml compound, read-out: Inhibition rate (%) of prostaglandin E2 production) was 9.7%. The inhibition at 3 µg/mL ([1]; Mus musculus, RAW264.7, 3 μg/ml compound, read-out: Inhibition rate (%) of prostaglandin E2 production) was ~95%, the IC50 ([1]; Mus musculus, RAW264.7, LPS-stimulated Raw 264.7 cells) was 2.63 µM and the “Inhibition rate (%) of arthritis” value ([2]; 3 mg/kg/day oral) was 35 ± 19%. For the same molecule, the “Inhibition rate (%) of arthritis” value ([2]; 10 mg/kg/day oral) was 59 ± 11%, the “Inhibition rate (%) of arthritis” value ([2]; 20 mg/kg/day oral) was 71 ± 17% and the “Suppression of arthritis (in words)” value ([2]; 3, 10, 20 mg/kg/day oral) was “suppressed dose-dependently”. For the same molecule, the “Expression of Bf1-1/A1 mRNA induced by TNF-α” value [3] was “inhibited”, the “Expression of cIAP-1 protein induced by TNF-α” value [4] was “inhibited” and the “Expression of cIAP-2 protein induced by TNF-α” value [5] was “inhibited”. For the same molecule, the “Expression of Bcl-2” value [6] was “not inhibited”, the “Expression of Bax” value [7] was “not inhibited” and the “Expression of iNOS mRNA” value [8] was “completely suppressed”. For the same molecule, the “Expression of COX mRNA” value ([9]; 1 μg/ml) was “inhibited”, the “Expression of COX-2 mRNA” value ([9]; 3 μg/ml, LPS 1 μg/ml, 6 hours) was “completely suppressed” and the “Expression of iNOS protein” value ([10]; 3 μg/ml) was “completely suppressed”. The “Expression of iNOS protein” value ([10]; 0.1-3 μg/ml) was “suppressed dose-dependently”.
